Data: ChEMBL document CHEMBL1201862, “PubChem BioAssay data set” (2004)
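All cell lines were grown in 96-well plates and treated with compound for 48 hours. GI50: concentration for 50% inhibition of growth.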 Active and inactive are the calls of the source. Rule as the data show it: active = GI50 up to about 1.1 µM and inactive = higher.

What was measured:
Assay in all cases: NCI tumour cell line growth inhibition, 48 h
SK-OV-3 = system: SK-OV-3
ACHN = system: ACHN
IGROV-1 = system: IGROV-1
SK-MEL-28 = system: SK-MEL-28
NCI-H23 = system: NCI-H23
MDA-MB-231 = system: MDA-MB-231
DU-145 = system: DU-145
SF-539 = system: SF-539
M14 = system: M14
CCRF-CEM = system: CCRF-CEM
SW-620 = system: SW-620
HCC 2998 = system: HCC 2998
SK-MEL-5 = system: SK-MEL-5
MDA-MB-435 = system: MDA-MB-435
PC-3 = system: PC-3
SNB-19 = system: SNB-19
NCI-H460 = system: NCI-H460
SR = system: SR
SN12C = system: SN12C
UO-31 = system: UO-31

Q: For `O=C(NNc1cn[nH]c(=O)n1)c1cccc2nc3ccccc3nc12`, which GI50 (SK-OV-3) is on record?
A: Its GI50 is 33.4 µM (inactive).

Q: What about the GI50 (ACHN) of the same compound?
A: The GI50 was 23.3 µM (inactive).

Q: And the GI50 (IGROV-1)?
A: Its GI50 is 38.2 µM (inactive).

Q: And the GI50 (SK-MEL-28)?
A: Its GI50 is > 100 µM (inactive).

Q: And the GI50 (NCI-H23)?
A: Its GI50 is 45.6 µM (inactive).

Q: And the GI50 (MDA-MB-231)?
A: Its GI50 is 26.5 µM (inactive).

Q: What about the GI50 (DU-145) of the same compound?
A: Its GI50 is 85.3 µM (inactive).

Q: And the GI50 (SF-539)?
A: The GI50 was 46.7 µM (inactive).

Q: And the GI50 (M14)?
A: The GI50 was > 100 µM (inactive).

Q: And the GI50 (CCRF-CEM)?
A: The GI50 was 45.7 µM (inactive).

Q: And the GI50 (SW-620)?
A: Its GI50 is > 100 µM (inactive).

Q: What about the GI50 (HCC 2998) of the same compound?
A: The GI50 was 25.1 µM (inactive).

Q: What about the GI50 (SK-MEL-5) of the same compound?
A: The GI50 was > 100 µM (inactive).

Q: What about the GI50 (MDA-MB-435) of the same compound?
A: Its GI50 is > 100 µM (inactive).

Q: And the GI50 (PC-3)?
A: Its GI50 is > 100 µM (inactive).

Q: And the GI50 (SNB-19)?
A: Its GI50 is 74 µM (inactive).

Q: What about the GI50 (NCI-H460) of the same compound?
A: Its GI50 is > 100 µM (inactive).

Q: What about the GI50 (SR) of the same compound?
A: Its GI50 is 10.7 µM (inactive).

Q: And the GI50 (SN12C)?
A: Its GI50 is 60.1 µM (inactive).

Q: How did the GI50 (ACHN) turn out when `COP1(=O)NCc2ncccc2O1` (stereo not drawn) was run?
A: Its GI50 is > 100 µM (inactive).

Q: What about the GI50 (IGROV-1) of the same compound?
A: Its GI50 is > 100 µM (inactive).

Q: And the GI50 (SK-MEL-28)?
A: Its GI50 is > 100 µM (inactive).

Q: What about the GI50 (NCI-H23) of the same compound?
A: The GI50 was > 100 µM (inactive).

Q: What about the GI50 (MDA-MB-231) of the same compound?
A: The GI50 was > 100 µM (inactive).

Q: And the GI50 (DU-145)?
A: The GI50 was > 100 µM (inactive).

Q: What about the GI50 (SF-539) of the same compound?
A: Its GI50 is > 100 µM (inactive).

Q: What about the GI50 (M14) of the same compound?
A: The GI50 was > 100 µM (inactive).

Q: What about the GI50 (CCRF-CEM) of the same compound?
A: The GI50 was > 100 µM (inactive).

Q: What about the GI50 (SW-620) of the same compound?
A: The GI50 was > 100 µM (inactive).

Q: What about the GI50 (HCC 2998) of the same compound?
A: The GI50 was > 100 µM (inactive).

Q: What about the GI50 (SK-MEL-5) of the same compound?
A: The GI50 was > 100 µM (inactive).

Q: What about the GI50 (MDA-MB-435) of the same compound?
A: Its GI50 is > 100 µM (inactive).

Q: What about the GI50 (UO-31) of the same compound?
A: The GI50 was > 100 µM (inactive).

Q: And the GI50 (PC-3)?
A: The GI50 was > 100 µM (inactive).

Q: And the GI50 (SNB-19)?
A: Its GI50 is > 100 µM (inactive).

Q: And the GI50 (NCI-H460)?
A: The GI50 was > 100 µM (inactive).

Q: What about the GI50 (SR) of the same compound?
A: The GI50 was > 100 µM (inactive).

Q: And the GI50 (SN12C)?
A: The GI50 was > 100 µM (inactive).

Q: How did the GI50 (SK-OV-3) turn out when `CO[C@@]12C[C@H](CNC(=O)c3ccc[nH]3)O[C@@H]1NC(=O)N2` was run?
A: The GI50 was > 100 µM (inactive).

Q: And the GI50 (ACHN)?
A: Its GI50 is > 100 µM (inactive).

Q: And the GI50 (IGROV-1)?
A: The GI50 was > 100 µM (inactive).

Q: And the GI50 (SK-MEL-28)?
A: The GI50 was > 100 µM (inactive).

Q: And the GI50 (NCI-H23)?
A: The GI50 was > 100 µM (inactive).

Q: What about the GI50 (MDA-MB-231) of the same compound?
A: Its GI50 is > 100 µM (inactive).

Q: And the GI50 (DU-145)?
A: The GI50 was > 100 µM (inactive).

Q: And the GI50 (SF-539)?
A: The GI50 was > 100 µM (inactive).

Q: And the GI50 (M14)?
A: The GI50 was > 100 µM (inactive).

Q: And the GI50 (SW-620)?
A: Its GI50 is > 100 µM (inactive).

Q: And the GI50 (HCC 2998)?
A: The GI50 was > 100 µM (inactive).

Q: What about the GI50 (SK-MEL-5) of the same compound?
A: Its GI50 is > 100 µM (inactive).

Q: And the GI50 (MDA-MB-435)?
A: Its GI50 is > 100 µM (inactive).

Q: What about the GI50 (UO-31) of the same compound?
A: The GI50 was > 100 µM (inactive).

Q: And the GI50 (PC-3)?
A: Its GI50 is > 100 µM (inactive).

Q: And the GI50 (SNB-19)?
A: Its GI50 is > 100 µM (inactive).

Q: And the GI50 (NCI-H460)?
A: The GI50 was > 100 µM (inactive).

Q: What about the GI50 (SR) of the same compound?
A: The GI50 was > 100 µM (inactive).

Q: And the GI50 (SN12C)?
A: Its GI50 is > 100 µM (inactive).

Q: Which results are given for `CC1S/C(=N\N=C2/C(=O)Nc3ccc(Br)cc32)N(C2CCCCC2)C1=O` (stereo not drawn)?
A: GI50 (SK-OV-3): 2.84 µM (inactive); GI50 (ACHN): 1.16 µM (inactive); GI50 (SK-MEL-28): 6.08 µM (inactive); GI50 (NCI-H23): 4.42 µM (inactive); GI50 (MDA-MB-231): 2.18 µM (inactive); GI50 (DU-145): 3.73 µM (inactive); GI50 (SF-539): 3.66 µM (inactive); GI50 (M14): 4.29 µM (inactive); GI50 (CCRF-CEM): 39.8 µM (inactive); GI50 (SW-620): 11.7 µM (inactive); GI50 (HCC 2998): 4.08 µM (inactive); GI50 (SK-MEL-5): 40.6 µM (inactive); GI50 (MDA-MB-435): 5.37 µM (inactive); GI50 (UO-31): 1.06 µM (active); GI50 (PC-3): 5.36 µM (inactive); GI50 (SNB-19): 4.06 µM (inactive); GI50 (NCI-H460): 3.96 µM (inactive); GI50 (SR): 5.06 µM (inactive); GI50 (SN12C): 2.93 µM (inactive)

Q: How did the GI50 (SK-OV-3) turn out when `c1cncc(-c2cc(-c3cc(-c4cccnc4)[nH]n3)n[nH]2)c1` was run?
A: Its GI50 is > 100 µM (inactive).

Q: What about the GI50 (ACHN) of the same compound?
A: The GI50 was > 100 µM (inactive).

Q: And the GI50 (IGROV-1)?
A: Its GI50 is > 100 µM (inactive).

Q: And the GI50 (SK-MEL-28)?
A: Its GI50 is > 100 µM (inactive).

Q: What about the GI50 (NCI-H23) of the same compound?
A: Its GI50 is > 100 µM (inactive).

Q: What about the GI50 (MDA-MB-231) of the same compound?
A: The GI50 was > 100 µM (inactive).

Q: What about the GI50 (DU-145) of the same compound?
A: The GI50 was > 100 µM (inactive).

Q: And the GI50 (SF-539)?
A: Its GI50 is > 100 µM (inactive).

Q: And the GI50 (M14)?
A: Its GI50 is > 100 µM (inactive).

Q: What about the GI50 (SW-620) of the same compound?
A: Its GI50 is > 100 µM (inactive).

Q: What about the GI50 (HCC 2998) of the same compound?
A: The GI50 was > 100 µM (inactive).

Q: And the GI50 (SK-MEL-5)?
A: Its GI50 is > 100 µM (inactive).

Q: What about the GI50 (MDA-MB-435) of the same compound?
A: Its GI50 is > 100 µM (inactive).

Q: And the GI50 (UO-31)?
A: Its GI50 is > 100 µM (inactive).

Q: And the GI50 (PC-3)?
A: The GI50 was > 100 µM (inactive).

Q: What about the GI50 (SNB-19) of the same compound?
A: Its GI50 is > 100 µM (inactive).

Q: And the GI50 (NCI-H460)?
A: Its GI50 is > 100 µM (inactive).

Q: What about the GI50 (SR) of the same compound?
A: Its GI50 is > 100 µM (inactive).

Q: And the GI50 (SN12C)?
A: Its GI50 is > 100 µM (inactive).

Q: `Cc1ccc(-c2n[nH]c(=O)[nH]2)cc1` was tested. Which GI50 (ACHN) did it give?
A: Its GI50 is > 100 µM (inactive).

Q: What about the GI50 (IGROV-1) of the same compound?
A: The GI50 was > 100 µM (inactive).

Q: What about the GI50 (SK-MEL-28) of the same compound?
A: Its GI50 is > 100 µM (inactive).

Q: What about the GI50 (NCI-H23) of the same compound?
A: Its GI50 is > 100 µM (inactive).

Q: And the GI50 (MDA-MB-231)?
A: Its GI50 is > 100 µM (inactive).

Q: And the GI50 (DU-145)?
A: The GI50 was > 100 µM (inactive).

Q: And the GI50 (SF-539)?
A: The GI50 was > 100 µM (inactive).

Q: What about the GI50 (M14) of the same compound?
A: The GI50 was > 100 µM (inactive).

Q: What about the GI50 (CCRF-CEM) of the same compound?
A: The GI50 was > 100 µM (inactive).

Q: What about the GI50 (SW-620) of the same compound?
A: Its GI50 is > 100 µM (inactive).

Q: What about the GI50 (HCC 2998) of the same compound?
A: The GI50 was > 100 µM (inactive).

Q: And the GI50 (SK-MEL-5)?
A: The GI50 was > 100 µM (inactive).

Q: What about the GI50 (MDA-MB-435) of the same compound?
A: The GI50 was > 100 µM (inactive).

Q: What about the GI50 (UO-31) of the same compound?
A: Its GI50 is > 100 µM (inactive).

Q: What about the GI50 (PC-3) of the same compound?
A: Its GI50 is > 100 µM (inactive).

Q: And the GI50 (SNB-19)?
A: The GI50 was > 100 µM (inactive).

Q: What about the GI50 (NCI-H460) of the same compound?
A: Its GI50 is > 100 µM (inactive).

Q: And the GI50 (SR)?
A: The GI50 was > 100 µM (inactive).

Q: And the GI50 (SN12C)?
A: The GI50 was > 100 µM (inactive).

Q: What does the source list for `N=C(N)C1CN(CCc2c[nH]c3ccccc23)C(=O)NC1=O` (stereo not drawn)?
A: GI50 (SK-OV-3): > 100 µM (inactive); GI50 (ACHN): > 100 µM (inactive); GI50 (IGROV-1): > 100 µM (inactive); GI50 (SK-MEL-28): > 100 µM (inactive); GI50 (NCI-H23): > 100 µM (inactive); GI50 (MDA-MB-231): > 100 µM (inactive); GI50 (DU-145): > 100 µM (inactive); GI50 (M14): > 100 µM (inactive); GI50 (CCRF-CEM): > 100 µM (inactive); GI50 (SW-620): > 100 µM (inactive); GI50 (HCC 2998): > 100 µM (inactive); GI50 (SK-MEL-5): > 100 µM (inactive); GI50 (MDA-MB-435): > 100 µM (inactive); GI50 (UO-31): > 100 µM (inactive); GI50 (PC-3): > 100 µM (inactive); GI50 (SNB-19): > 100 µM (inactive); GI50 (NCI-H460): > 100 µM (inactive); GI50 (SR): > 100 µM (inactive); GI50 (SN12C): > 100 µM (inactive)
